The species named for assay [1] is Cavia porcellus. Briefly: Apparent affinity towards histamine receptor was determined and expressed as pD2; IA = Inactive.
The next assay has as its system Agelas clathrodes. As to the kind of experiment: Distribution in Carribean Agelas clathrodes was determined and expressed as % dry weight. Format: functional.
A further assay relates to agelas longissima. As to the kind of experiment: Distribution in Carribean Agelas longissima was determined and expressed as % dry weight. The format is functional.
Another assay deals with Agelas dispar. As to the kind of experiment: Distribution in Carribean Agelas dispar was determined and expressed as % dry weight. Format: functional.
The next assay concerns Agelas conifera. As to the kind of experiment: Distribution in Carribean Agelas conifera was determined and expressed as % dry weight. Format: functional.
For assay [2], the species on record is Cavia porcellus. As to the kind of experiment: Apparent affinity towards histamine receptor was determined and expressed as pD2.

Active and inactive are the calls of the source. No cut-off for these calls is given here.

For `C[N+]1=CNC[C@]1(C)CC(NC(=O)c1cc(Br)c[nH]1)C(=O)[O-]` (stereo not given in full), the pD2 result in the assay listed under Cavia porcellus [1] was “inactive”. Moreover, the Dry weight in the assay with Agelas clathrodes stood at 7.2%; in the assay with agelas longissima, 0%; in the assay on Agelas dispar, 0%; in the assay with Agelas conifera, 0%.
As for `NC1=N/C(=C\CCNC(=O)c2cc(Br)c[nH]2)C(=O)N1`, in the assay listed under Cavia porcellus [2], the pD2 is 5.33. In addition, the Dry weight in the assay on Agelas clathrodes is 0.5%; with agelas longissima it was 3.3%; in the assay on Agelas dispar, 0.2%; in the assay on Agelas conifera it was 3.5%.
The like results for `NC1=N/C(=C\CCNC(=O)c2cc(Br)c(Br)[nH]2)C(=O)N1` were, in that order, 5.52, 3.2%, 1.1%, 3.5% and 0.8%.
The like results for `NC1=N/C(=C\C(O)CNC(=O)c2cc(Br)c[nH]2)C(=O)N1` (stereo not given) were, in that order, 4.34, 0.5%, 3.3%, 0.2% and 3.5%.
The like results for `Nc1nc([C@H]2[C@H](CNC(=O)c3cc(Br)c[nH]3)[C@@H](CNC(=O)c3cc(Br)c[nH]3)[C@@H]2c2c[nH]c(N)n2)c[nH]1` were, in that order, 4.24, 15.1%, 2.5%, 15.5% and 8.8%.
`NC1=N/C(=C\C(O)CNC(=O)c2cc(Br)c(Br)[nH]2)C(=O)N1` (stereo not given): the pD2 in the assay filed under Cavia porcellus [2] is 4.48. Further, the Dry weight turned out to be 3.2% in the assay with Agelas clathrodes, 1.1% with agelas longissima, 3.5% in the assay on Agelas dispar and 0.8% with Agelas conifera.
Consider `Nc1ncc(/C=C/CNC(=O)c2cc(Br)c(Br)[nH]2)[nH]1`, for which the pD2 in the assay listed under Cavia porcellus [2] is 4.02. The Dry weight in the assay on Agelas clathrodes stood at 2.1%; in the assay with agelas longissima, 4.1%; in the assay on Agelas dispar, 4.2%; with Agelas conifera, 2.1%.
